# Measured values taken from US20250084056A1, “SUBSTITUTED OXOISOINDOLINYL PIPERIDINE-2,6-DIONE COMPOUNDS” (BRISTOL-MYERS SQUIBB COMPANY, priority 2023, published 2025).
# Tests used:
# Assay type in all cases: cell-based
# Cyclin E1 = Cyclin E1 (Homo sapiens, UniProt P24864+Q96SW2); test: Cyclin E1 Cellular Degradation Assay (MSD); design: endogenous in cells; host or cells: OVCAR3; settings: for DC50 / Dmax: Cyclin E1 cellular degradation; for Dmax: maximum degradation; for Ratio of GSPT1 DC50/Cyclin E1 DC50: selectivity for degradation of Cyclin E1 over GSPT1
# Procedure, shortened: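 OVCAR3 cells treated with compound for 24 h at 37 °C, lysed, and cyclin E1 measured by MSD sandwich immunoassay (rabbit capture, mouse detection anti-CCNE1). Reference degrader at […] defined 110% response; DC50 and Dmax derived from response.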
# GSPT1 = GSPT1 (Homo sapiens, UniProt P15170+Q96SW2); test: GSPT1 Cellular Degradation Assay (DF15-GSPT1-ePL); design: expressed in transfected cells; settings: DF15-GSPT1-ePL cells, 20 hours
# Procedure, shortened: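 Human DF15 cells co-expressing a GSPT1–ePL fusion were treated with compound in RPMI 1640/10% FBS for 20 h at 37 °C. GSPT1 level was read by enzyme-fragment-complementation luminescence after 60 min with detection reagent. The reference degrader at […] defined 75% response; DC50 and Dmax were reported.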
# Phospho-Rb (Ser807/811) = test: Phospho-Retinoblastoma (pRB) Cellular Assay; settings: Homo sapiens, OVCAR-3, NIH OVCAR3 cells, 24 hours; for IC50: concentration giving 50% response; for Emax: maximum response, reference compound at 10 μM = 100%, read-out: pRB Ymax
# Procedure, shortened: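 OVCAR3 cells seeded overnight, then dosed with serial dilutions for 24 h at 37° C. Lysed with kit mix plus phosphatase inhibitor, ≥4 h at room temperature, read on EnVision; 100% response set by reference compound at 10 μM, giving IC50 and Ymax.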
# Chain of Cyclin E1 (P24864 whole entry): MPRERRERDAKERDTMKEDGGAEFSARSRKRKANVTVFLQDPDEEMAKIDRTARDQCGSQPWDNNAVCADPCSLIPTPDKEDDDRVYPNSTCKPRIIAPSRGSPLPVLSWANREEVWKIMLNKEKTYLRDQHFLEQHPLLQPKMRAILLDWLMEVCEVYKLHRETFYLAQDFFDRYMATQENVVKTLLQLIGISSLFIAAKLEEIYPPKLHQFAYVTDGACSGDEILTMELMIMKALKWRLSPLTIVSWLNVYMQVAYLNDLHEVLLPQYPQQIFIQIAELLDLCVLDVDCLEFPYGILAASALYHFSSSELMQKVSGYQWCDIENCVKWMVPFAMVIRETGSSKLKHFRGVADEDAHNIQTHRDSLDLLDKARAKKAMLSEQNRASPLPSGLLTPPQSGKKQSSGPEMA
# Chain of Cyclin E1 (Q96SW2 whole entry): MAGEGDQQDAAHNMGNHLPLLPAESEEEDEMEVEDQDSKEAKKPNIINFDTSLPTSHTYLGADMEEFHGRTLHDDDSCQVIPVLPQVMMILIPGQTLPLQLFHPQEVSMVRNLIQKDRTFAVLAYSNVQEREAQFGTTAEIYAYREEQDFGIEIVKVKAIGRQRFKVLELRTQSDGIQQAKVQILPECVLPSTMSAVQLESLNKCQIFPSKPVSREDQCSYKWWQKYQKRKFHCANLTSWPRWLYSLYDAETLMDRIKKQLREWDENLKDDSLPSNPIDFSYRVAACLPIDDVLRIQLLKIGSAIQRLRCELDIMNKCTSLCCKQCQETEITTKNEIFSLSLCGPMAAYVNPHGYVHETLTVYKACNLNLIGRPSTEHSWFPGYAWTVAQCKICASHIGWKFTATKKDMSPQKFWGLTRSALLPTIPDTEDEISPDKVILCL
# Chain of Cyclin E1 (Q16531 whole entry partner): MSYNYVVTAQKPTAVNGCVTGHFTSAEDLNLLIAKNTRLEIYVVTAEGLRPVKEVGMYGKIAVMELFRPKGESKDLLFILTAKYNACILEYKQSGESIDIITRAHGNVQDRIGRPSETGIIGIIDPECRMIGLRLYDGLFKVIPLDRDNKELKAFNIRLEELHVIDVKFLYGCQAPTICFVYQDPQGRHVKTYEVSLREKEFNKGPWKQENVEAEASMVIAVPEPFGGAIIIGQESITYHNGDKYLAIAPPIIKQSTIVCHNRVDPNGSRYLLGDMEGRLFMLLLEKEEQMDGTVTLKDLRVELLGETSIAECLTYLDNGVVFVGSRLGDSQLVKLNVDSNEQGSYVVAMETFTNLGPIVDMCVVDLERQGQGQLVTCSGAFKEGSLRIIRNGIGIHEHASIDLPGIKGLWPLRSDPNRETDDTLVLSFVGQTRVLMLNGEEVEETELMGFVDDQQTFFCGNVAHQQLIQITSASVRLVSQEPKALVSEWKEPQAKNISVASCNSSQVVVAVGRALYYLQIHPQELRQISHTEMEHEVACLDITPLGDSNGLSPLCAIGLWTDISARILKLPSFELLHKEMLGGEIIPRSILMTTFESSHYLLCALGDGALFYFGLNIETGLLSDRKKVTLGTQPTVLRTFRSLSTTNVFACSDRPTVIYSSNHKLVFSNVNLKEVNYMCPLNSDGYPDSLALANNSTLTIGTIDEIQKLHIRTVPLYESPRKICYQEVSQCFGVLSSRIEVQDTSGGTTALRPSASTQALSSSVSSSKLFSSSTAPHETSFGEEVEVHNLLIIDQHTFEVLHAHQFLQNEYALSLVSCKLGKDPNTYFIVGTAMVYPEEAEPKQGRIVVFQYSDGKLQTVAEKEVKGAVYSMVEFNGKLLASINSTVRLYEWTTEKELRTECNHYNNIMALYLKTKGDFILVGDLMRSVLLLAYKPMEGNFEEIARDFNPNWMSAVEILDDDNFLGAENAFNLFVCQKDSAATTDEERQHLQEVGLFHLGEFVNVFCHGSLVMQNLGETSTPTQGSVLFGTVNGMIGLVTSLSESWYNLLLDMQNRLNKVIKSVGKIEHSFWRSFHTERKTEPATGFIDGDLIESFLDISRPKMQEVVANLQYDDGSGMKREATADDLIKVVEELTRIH
# Chain of GSPT1 (P15170 whole entry, the tested form may be a part): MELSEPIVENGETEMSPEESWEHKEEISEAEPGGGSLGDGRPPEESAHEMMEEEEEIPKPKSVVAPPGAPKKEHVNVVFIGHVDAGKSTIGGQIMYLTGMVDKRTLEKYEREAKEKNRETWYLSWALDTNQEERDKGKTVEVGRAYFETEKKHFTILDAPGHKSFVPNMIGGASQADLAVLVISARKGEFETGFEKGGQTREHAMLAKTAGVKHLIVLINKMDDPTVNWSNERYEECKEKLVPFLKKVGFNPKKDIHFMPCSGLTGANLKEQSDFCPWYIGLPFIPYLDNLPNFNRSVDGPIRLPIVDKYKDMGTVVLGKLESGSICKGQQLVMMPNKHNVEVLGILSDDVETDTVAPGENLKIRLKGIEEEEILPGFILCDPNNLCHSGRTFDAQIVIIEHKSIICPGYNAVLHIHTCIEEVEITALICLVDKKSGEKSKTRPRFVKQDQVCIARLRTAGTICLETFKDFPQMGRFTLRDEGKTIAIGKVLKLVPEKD
# Chain of GSPT1 (Q96SW2 whole entry, the tested form may be a part): as the sequence (Q96SW2 whole entry) above
# Chain of GSPT1 (Q16531 whole entry partner, the tested form may be a part): as the sequence (Q16531 whole entry partner) above
DC50 (Cyclin E1) [nM],Dmax (Cyclin E1) [%],Ratio of GSPT1 DC50/Cyclin E1 DC50 (Cyclin E1),DC50 (GSPT1) [nM],Dmax (GSPT1) [%],IC50 (Phospho-Rb (Ser807/811)) [nM],SMILES,Emax (Phospho-Rb (Ser807/811)) [%]
67,96,>208,> 14000,24,498,"COc1cccc(Oc2ccc(NC(=O)OCc3ccc4c(c3OC)C(=O)N(C3CCC(=O)NC3=O)C4)cc2)c1 (centres unmarked) [Example 32, [2-(2,6-dioxopiperidin-3-yl)-4-methoxy-3-oxo-2,3-dihydro-1H-isoindol-5-yl]methyl N-[4-(3-methoxyphenoxy)phenyl]carbamate]",83
224,104,>62,> 14000,10,42,"CC(=O)N1CCC(Oc2c(COC(=O)Nc3ccc(Oc4ccc(F)c(F)c4)cc3)ccc3c2C(=O)N(C2CCC(=O)NC2=O)C3)CC1 (centres unmarked) [Example 179, {4-[(1-acetylpiperidin-4-yl)oxy]-2-(2,6-dioxopiperidin-3-yl)-3-oxo-2,3-dihydro-1H-isoindol-5-yl}methyl N-[4-(3,4-difluorophenoxy)phenyl]carbamate]",140
257,108,>54,> 14000,28,339,"COc1c(COC(=O)Nc2ccc(Oc3ccc(F)c(F)c3)cc2)ccc2c1C(=O)N([C@@H]1CCC(=O)NC1=O)C2 (single isomer, unassigned) [Example 36]",98
181,115,>77,> 14000,40,73,"COc1c(COC(=O)Nc2ccc(Oc3ccccc3Cl)cc2)ccc2c1C(=O)N(C1CCC(=O)NC1=O)C2 (centres unmarked) [Example 80, [2-(2,6-dioxopiperidin-3-yl)-4-methoxy-3-oxo-2,3-dihydro-1H-isoindol-5-yl]methyl N-[4-(2-chlorophenoxy)phenyl]carbamate]",119
79,100,>177,> 14000,6,118,"O=C1CCC(N2Cc3ccc(COC(=O)Nc4ccc(Oc5ccc(F)c(F)c5)cc4)c(Oc4cccnc4)c3C2=O)C(=O)N1 (centres unmarked) [Example 172, [2-(2,6-dioxopiperidin-3-yl)-3-oxo-4-(pyridin-3-yloxy)-2,3-dihydro-1H-isoindol-5-yl]methyl N-[4-(3,4-difluorophenoxy)phenyl]carbamate]",120
84,107,>166,> 14000,19,37,"O=C1CCC(N2Cc3ccc(COC(=O)Nc4ccc(Oc5ccc(F)c(F)c5)cc4)c(O[C@@H]4CCOC4)c3C2=O)C(=O)N1 (stereo partly drawn) [Example 153, [2-(2,6-dioxopiperidin-3-yl)-3-oxo-4-[(3R)-oxolan-3-yloxy]-2,3-dihydro-1H-isoindol-5-yl]methyl N-[4-(3,4-difluorophenoxy)phenyl]carbamate]",124

# The next lines start with the compound.
SMILES,DC50 (Cyclin E1) [nM],Dmax (Cyclin E1) [%],Ratio of GSPT1 DC50/Cyclin E1 DC50 (Cyclin E1),DC50 (GSPT1) [nM],Dmax (GSPT1) [%],IC50 (Phospho-Rb (Ser807/811)) [nM],Emax (Phospho-Rb (Ser807/811)) [%]
"COc1c(COC(=O)Nc2ccc(Oc3cccc(F)c3F)cc2F)ccc2c1C(=O)N(C1CCC(=O)NC1=O)C2 (centres unmarked) [Example 22, [2-(2,6-dioxopiperidin-3-yl)-4-methoxy-3-oxo-2,3-dihydro-1H-isoindol-5-yl]methyl N-[4-(2,3-difluorophenoxy)-2-fluorophenyl]carbamate]",26,109,431,11400,57,263,97
"COc1c(COC(=O)Nc2ccc(Oc3cccc(F)c3)cc2Cl)ccc2c1C(=O)N(C1CCC(=O)NC1=O)C2 (centres unmarked) [Example 27, [2-(2,6-dioxopiperidin-3-yl)-4-methoxy-3-oxo-2,3-dihydro-1H-isoindol-5-yl]methyl N-[2-chloro-4-(3-fluorophenoxy)phenyl]carbamate]",93,104,>151,> 14000,30,1180,86
"COc1c(COC(=O)Nc2ccc(Cc3ccc(F)c(Cl)c3)cc2)ccc2c1C(=O)N(C1CCC(=O)NC1=O)C2 (centres unmarked) [Example 21, [2-(2,6-dioxopiperidin-3-yl)-4-methoxy-3-oxo-2,3-dihydro-1H-isoindol-5-yl]methyl N-{4-[(3-chloro-4-fluorophenyl)methyl]phenyl}carbamate]",40,101,>353,> 14000,14,818,92
"COc1cc(Oc2cccc(F)c2)ccc1NC(=O)OCc1ccc2c(c1OC)C(=O)N(C1CCC(=O)NC1=O)C2 (centres unmarked) [Example 48, [2-(2,6-dioxopiperidin-3-yl)-4-methoxy-3-oxo-2,3-dihydro-1H-isoindol-5-yl]methyl N-[4-(3-fluorophenoxy)-2-methoxyphenyl]carbamate]",139,111,>101,> 14000,46,69,108
"CC(C)(O)COc1c(COC(=O)Nc2ccc(Oc3ccc(F)c(F)c3)cc2F)ccc2c1C(=O)N(C1CCC(=O)NC1=O)C2 (centres unmarked) [Example 161, [2-(2,6-dioxopiperidin-3-yl)-4-(2-hydroxy-2-methylpropoxy)-3-oxo-2,3-dihydro-1H-isoindol-5-yl]methyl N-[4-(3,4-difluorophenoxy)-2-fluorophenyl]carbamate]",62,102,>225,> 14000,10,37,129
"O=C1CCC(N2Cc3ccc(COC(=O)Nc4ccc(Oc5ccccc5Cl)cc4)c(OC4CCOCC4)c3C2=O)C(=O)N1 (centres unmarked) [Example 131, [2-(2,6-dioxopiperidin-3-yl)-4-(oxan-4-yloxy)-3-oxo-2,3-dihydro-1H-isoindol-5-yl]methyl N-[4-(2-chlorophenoxy)phenyl]carbamate]",31,102,>450,> 14000,0,28,129
"CC(C)(O)COc1c(COC(=O)Nc2ccc(Oc3ccc(F)cc3)cc2F)ccc2c1C(=O)N(C1CCC(=O)NC1=O)C2 (centres unmarked) [Example 162, [2-(2,6-dioxopiperidin-3-yl)-4-(2-hydroxy-2-methylpropoxy)-3-oxo-2,3-dihydro-1H-isoindol-5-yl]methyl N-[2-fluoro-4-(4-fluorophenoxy)phenyl]carbamate]",27,107,>521,> 14000,8,24,133
"CC(C)Oc1c(COC(=O)Nc2ccc(Oc3ccc(F)c(F)c3)cc2F)ccc2c1C(=O)N(C1CCC(=O)NC1=O)C2 (centres unmarked) [Example 119, [2-(2,6-dioxopiperidin-3-yl)-3-oxo-4-(propan-2-yloxy)-2,3-dihydro-1H-isoindol-5-yl]methyl N-[4-(3,4-difluorophenoxy)-2-fluorophenyl]carbamate]",116,107,>120,> 14000,10,54,111
"COc1c(COC(=O)Nc2ccc(C(F)(F)c3ccccc3)cc2)ccc2c1C(=O)N(C1CCC(=O)NC1=O)C2 (centres unmarked) [Example 29, [2-(2,6-dioxopiperidin-3-yl)-4-methoxy-3-oxo-2,3-dihydro-1H-isoindol-5-yl]methyl N-{4-[difluoro(phenyl)methyl]phenyl}carbamate]",1430,92,>10,> 14000,45,865,99
"O=C1CCC(N2Cc3ccc(COC(=O)Nc4ccc(Oc5ccc(F)cc5Cl)cc4)c(OC4CCC4)c3C2=O)C(=O)N1 (centres unmarked) [Example 128, [4-cyclobutoxy-2-(2,6-dioxopiperidin-3-yl)-3-oxo-2,3-dihydro-1H-isoindol-5-yl]methyl N-[4-(2-chloro-4-fluorophenoxy)phenyl]carbamate]",101,106,>139,> 14000,10,136,124
"O=C1CCC(N2Cc3ccc(COC(=O)Nc4ccc(Oc5ccc(F)cc5F)cc4F)c(O[C@@H]4CCCOC4)c3C2=O)C(=O)N1 (stereo partly drawn) [Example 148, [2-(2,6-dioxopiperidin-3-yl)-4-[(3R)-oxan-3-yloxy]-3-oxo-2,3-dihydro-1H-isoindol-5-yl]methyl N-[4-(2,4-difluorophenoxy)-2-fluorophenyl]carbamate]",33,110,>423,> 14000,10,75,136
